Laboratory results published in US6635641B2 (Agouron Pharmaceuticals, Inc., priority 2000, dated 2003).
Structures can show the parent of a compound that is named as a salt. Where two headings read alike, the source gives them in different places.

Assays:
[1] = biological target: T1, phosphorylated VEGF-R2Δ50 (FLVK-P) (Homo sapiens, UniProt P35968, DEL940-989/E990V); experiment: VEGF-R2 coupled spectrophotometric assay, phosphorylated construct (FLVK-P); assay type: biochemical
T1 construct: VEGF-R2Δ50 contains residues 806-939 and 990-1171; made in house; host or cells: baculovirus/insect cells
Excerpt: A construct (VEGF-R2Δ50) of the cytosolic domain of human vascular endothelial growth factor receptor 2 (VEGF-R2) lacking the 50 central residues of the 68 residues of the kinase insert domain was expressed in a baculovirus/insect cell system. Of the 1356 residues of full-length VEGF-R2, VEGF-R2Δ50 contains residues 806-939 and 990-1171, and also one point mutation (E990V) within the kinase insert domain relative to wild-type VEGF-R2. See commonly assigned, co-pending U.S. patent application Ser. No. 09/390,326, filed Sep. 7, 1999, incorporated by reference herein, for discussion of VEGF constructs and expression systems. Autophosphorylation of the purified construct was performed by incubation of the enzyme at a concentration of 4 μM in the presence of 3 mM ATP and 40 mM MgCl2 in 100 mM Hepes, pH 7.5, containing 5% glycerol and 5 mM DTT, at 4° C. for 2 h. […] See Parast et al., Biochemistry, 37, 16788-16801 (1998).
The production of ADP from ATP that accompanies phosphoryl transfer was coupled to oxidation of NADH using phosphoenolpyruvate (PEP) and a system having pyruvate kinase (PK) and lactic dehydrogenase (LDH). The oxidation of NADH was monitored by following the decrease of absorbance at 340 nm (e340=6.22 cm^−1 mM^−1) using a Beckman DU 650 spectrophotometer. Assay conditions for phosphorylated VEGF-R2Δ50 (indicated as FLVK-P in the tables below) were the following: 1 mM PEP; 250 μM NADH; 50 units of LDH/mL; 20 units of PK/mL; 5 mM DTT; 5.1 mM poly(E4Y1); 1 mM ATP; and 25 mM MgCl2 in 200 mM Hepes, pH 7.5. Assay conditions for unphosphorylated VEGF-R2Δ50 (indicated as FLVK in the tables) were the following: 1 mM PEP; 250 μM NADH; 50 units of LDH/mL; 20 units of PK/mL; 5 mM DTT; 20 mM poly(E4Y1); 3 mM ATP; and 60 mM MgCl2 and 2 mM MnCl2 in 200 mM Hepes, pH 7.5. Assays were initiated with 5 to 40 nM of enzyme. Ki values were determined by measuring enzyme activity in the presence of varying concentrations of test compounds. The data were analyzed using Enzyme Kinetic and Kaleidagraph software.

[2] = test system: human umbilical vein endothelial cells (HUVEC); experiment: HUVEC proliferation assay (VEGF-stimulated, MTT); assay type: cell-based
Description: This assay determines the ability of a test compound to inhibit the growth factor-stimulated proliferation of human umbilical vein endothelial cells (“HUVEC”). HUVEC cells (passage 3-4, Clonetics, Corp.) were thawed into EGM2 culture medium (Clonetics Corp) in T75 flasks. Fresh EGM2 medium was added to the flasks 24 hours later. Four or five days later, cells were exposed to another culture medium (F12K medium supplemented with 10% fetal bovine serum (FBS), 60 μg/ml endothelial cell growth supplement (ECGS), and 0.1 mg/ml heparin). Exponentially-growing HUVEC cells were used in experiments thereafter. Ten to twelve thousand HUVEC cells were plated in 96-well dishes in 100 μl of rich, culture medium (described above). The cells were allowed to attach for 24 hours in this medium. The medium was then removed by aspiration and 105 μl of starvation media (F12K+1% FBS) was added to each well. After 24 hours, 15 μl of test agent dissolved in 1% DMSO in starvation medium or this vehicle alone was added into each treatment well; the final DMSO concentration was 0.1%. One hour later, 30 μl of VEGF (30 ng/ml) in starvation media was added to all wells except those containing untreated controls; the final VEGF concentration was 6 ng/ml. Cellular proliferation was quantified 72 hours later by MTT dye reduction, at which time cells were exposed for 4 hours MTT (Promega Corp.). Dye reduction was stopped by addition of a stop solution (Promega Corp.) and absorbance at 595 λ was determined on a 96-well spectrophotometer plate reader.

[3] = test system: lung cancer cells (line MV522); experiment: Cancer cell proliferation (MV522) assay (MTT); assay type: cell-based
Description: The protocol for assessing cellular proliferation in cancer cells is similar to that used for assessments in HUVEC cells. Two thousand lung cancer cells (line MV522, acquired from American Tissue Cultural Collection) were seeded in growth media (RPMI1640 medium supplemented with 2 mM glutamine and 10% FBS). Cells are allowed to attach for 1 day prior to addition of test agents and/or vehicles. Cells are treated simultaneously with the same test agents used in the HUVEC assay. Cellular proliferation is quantified by MTT dye reduction assay 72 hours after exposure to test agents. The total length of the assay is 4 days vs. 5 for HUVEC cells because MV522 cells are not exposed to starvation medium.

[4] = biological target: T2, unphosphorylated VEGF-R2Δ50 (FLVK) (Homo sapiens, UniProt P35968, DEL940-989/E990V); experiment: VEGF-R2 coupled spectrophotometric assay, unphosphorylated construct (FLVK); assay type: biochemical;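 further: Baculovirus-expressed cytosolic kinase domain, ADP formation linked via pyruvate kinase and lactate dehydrogenase to NADH oxidation, read as falling absorbance at 340 nm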
T2 construct: VEGF-R2Δ50 contains residues 806-939 and 990-1171; made in house; host or cells: baculovirus/insect cells

[5] = Homo sapiens, HUVEC, read-out: HUVEC IC50
[6] = unphosphorylated VEGF-R2 construct
[7] = Homo sapiens, HUVEC proliferation with albumin, read-out: Huvec + Albumin IC50

T2 sequence (P35968 with tags, fused parts or gaps DEL940-989/E990V limits assumed): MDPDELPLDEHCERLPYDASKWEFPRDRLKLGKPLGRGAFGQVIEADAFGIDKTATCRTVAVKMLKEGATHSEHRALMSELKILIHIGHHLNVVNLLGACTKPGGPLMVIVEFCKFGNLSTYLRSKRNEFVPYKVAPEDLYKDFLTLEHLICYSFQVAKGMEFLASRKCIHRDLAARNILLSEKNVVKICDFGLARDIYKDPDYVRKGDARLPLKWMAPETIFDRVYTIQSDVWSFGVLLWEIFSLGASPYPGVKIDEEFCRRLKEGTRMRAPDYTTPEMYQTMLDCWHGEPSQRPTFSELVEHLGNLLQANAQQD
T1 sequence (P35968 with tags, fused parts or gaps DEL940-989/E990V limits assumed): as above

Ki [1] | IC50 ([3]; MV522) | Ki [4] | Structure (SMILES) | IC50 [2, 5] | further results
2.53 nM | 430 nM | – | Cc1c(Br)cc(NC(=O)c2cccc(OCc3cncc4ccccc34)c2)cc1Br [Example R-2, N-(3,5-Dibromo-4-methyl-phenyl)-3-(isoquinolin-4-ylmethoxy)-benzamide] | 110 nM | –
6.95 nM | > 10000 nM | – | O=C(Nc1cc(C(F)(F)F)cc(C(F)(F)F)c1)c1cccc(CSc2ncnc3[nH]ncc23)c1 [Example B-17, 3-[(1H-Pyrazolo[3,4-d]pyrimidin-4-yl)sulfanylmethyl]-N(3,5-bis-trifluoromethylphenyl)-benzamide] | > 700 nM | –
– | – | – | CC(C)(C)c1cc(C(=O)Nc2cccc(OCc3cncc4ccccc34)c2)ccc1O [Example X-5, 3-t-Butyl-4-hydroxy-N-[3-(isoquinolin-4-ylmethoxy)-phenyl]-benzamide] | – | Ki [4, 6]: 1.3 nM; IC50 ([2]; Homo sapiens, VEGF-stimulated HUVEC proliferation, read-out: HUVEC IC50): 29 nM; IC50 ([3]; MV522 lung cancer cells): 3700 nM
11.2 nM | 10000 nM | 1.7 nM | Cc1cc(C)c2cc(NC(=O)c3cccc(OCc4cncc5ccccc45)c3)ccc2n1 [Example R-5, N-(2,4-Dimethylquinolin-6-yl)-3-(isoquinolin-4-ylmethoxy)-benzamide] | 89 nM | –
– | < 3000 nM | 5.5 nM | O=C(Nc1ccc2c(c1)CCCN2)c1ccc(F)c(OCc2cncc3ccccc23)c1 [Example O-1, 4-Fluoro-N-(1,2,3,4-tetrahydroquinolin-6-yl)-3-(isoquinolin-4-ylmethoxy)-benzamide bistrifluoroacetic acid salt] | > 300 nM | –
28 nM | > 10000 nM | – | Cc1cc(NC(=O)c2cccc(SCc3cnccn3)c2)ccc1C(C)C [Example D-1, N-(4-Isopropyl-3-methylphenyl)-3-[(pyrazin-2-yl)methylsulfanyl]benzamide] | 520 nM | –
– | 9700 nM | – | CC1(C)CCC(C)(C)c2cc(NC(=O)c3cccc(OCc4cncc5ccccc45)c3)ccc21 [Example R-3, 3-(Isoquinolin-4-ylmethoxy)-N-(5,5,8,8-tetramethyl-5,6,7,8-tetrahydronaphthalen-2-yl)-benzamide] | 50 nM | inhibition at 5 µM ([1]; @ 5 μM, read-out: FLVK-P percent inhibition): 67%
– | – | – | O=C(Nc1ccc(N2CCNCC2)c(C(F)(F)F)c1)c1cccc(CCc2cnc3[nH]cnc3c2)c1 [BB-1, 3-[2-(3H-Imidazo[4,5-b]pyridin-6-yl)-ethyl]-N-(4-piperazin-1-yl-3-trifluoromethyl-phenyl)-benzamide dihydrochloride] | – | Ki [4, 6]: 10.8 nM; IC50 [2, 7]: 940 nM
8.7 nM | – | 0.76 nM | Cc1cc(NC(=O)c2cccc(CCc3cncc4ccccc34)c2)ccc1C(C)C [Example S-3, N-(4-Isopropyl-3-methyl-phenyl)-3-(2-isoquinolin-4-yl-ethyl)-benzamide] | 180 nM | –
64 nM | > 10000 nM | – | CSc1cc(C)nc2ccc(NC(=O)c3cccc(OCc4cncc5ccccc45)c3)cc12 [Example K-4, 3-(Isoquinolin-4-yl)methoxy-N-(2-methyl-4-methylsulfanyl-quinolin-6-yl)-benzamide hydrochloride] | 380 nM | –
8.84 nM | > 10000 nM | – | COc1cc(/C=C/c2cc(CNc3cccc(C(=O)Nc4ccc(C(C)C)c(C)c4)c3)[nH]n2)ccc1O [Example I-1, 3-[({3-[(E)-2-(4-hydroxy-3-methoxyphenyl)ethenyl]-1H-pyrazol-5-yl}methyl)amino]-N-(3-methyl-4-isopropylphenyl)benzamide] | 220 nM | –
109 nM | – | 10 nM | Cc1ccc2cc(NC(=O)c3cccc(OCc4cccnc4)c3)ccc2n1 [Example K-9, N-(2-Methyl-quinolin-6-yl)-3-(pyridin-3-yl)methoxy-benzamide] | – | –
13 nM | 10000 nM | – | O=C(Nc1cccc(CSc2ncnc3[nH]ncc23)c1)c1cc(C(F)(F)F)cc(C(F)(F)F)c1 [Example V-2] | 180 nM | –
3.36 nM | > 10000 nM | 1.9 nM | Cc1c(Br)cc(NC(=O)c2cccc(CSc3cnccn3)c2)cc1Br [Example A-8, N-(3,5-Dibromo-4-methylphenyl)-3-[(pyrazin-2-yl)sulfanylmethyl]benzamide] | 740 nM | –
– | – | – | O=C(Nc1ccc(N2CCNCC2)c(C(F)(F)F)c1)c1ccc(F)c(CCc2cnc3[nH]cnc3c2)c1 [DD-1, 4-Fluoro-3-[2-(3H-imidazo[4,5-b]pyridin-6-yl)-ethyl]-N-(4-piperazin-1-yl-3-trifluoromethyl-phenyl)-benzamide dihydrochloride] | – | Ki [4, 6]: 5.6 nM; IC50 [2, 7]: 700 nM
5.84 nM | – | – | CC(C)(C)c1cccc(NC(=O)c2cccc(CSc3ncnc4[nH]ncc34)c2)c1 [Example B-18, 3-[(1H-Pyrazolo[3,4-d]pyrimidin-4-yl)sulfanylmethyl]-N(3-t-butylpheny)-benzamide] | – | IC50 ([2]; read-out: HUVEC IC50): 130 nM; IC50 [3]: > 10000 nM
15.7 nM | > 10000 nM | – | CC(C)c1cccc(NC(=O)c2cccc(CSc3ncnc4[nH]ncc34)c2)c1 [Example B-15, 3-[(1H-Pyrazolo[3,4-d]pyrimidin-4-yl)sulfanylmethyl]-N(3-isopropylphenyl)-benzamide] | 120 nM | –

Structure (SMILES) | Ki [1] | IC50 ([3]; MV522) | Ki [4] | IC50 [2, 5] | further results
COc1cc(/C=C/c2cc(CSc3cccc(C(=O)Nc4ccc5nc(C)ccc5c4)c3)[nH]n2)ccc1O [Example F-1, 3-[{5-((E)-2-(4-Hydroxy-3-methoxyphenyl)ethenyl)-2H-pyrazol-3-yl}methylsulfanyl]-N-(2-methylquinolin-6-yl)benzamide] | 2.36 nM | > 10000 nM | – | 710 nM | –
N#Cc1ccc(NC(=O)c2cccc(CSc3ncnc4[nH]ncc34)c2)cc1C(F)(F)F [Example B-12, N-[4-cyano-3-(trifluoromethyl)phenyl]-3-[(1H-pyrazolo[3,4-d]pyrimidin-4-yl-sulfanyl)methyl]benzamide] | 28 nM | > 10000 nM | – | 530 nM | –
O=C(Nc1ccc(N2CCNCC2)c(C(F)(F)F)c1)c1ccc(F)c(OCc2cncc(Br)c2)c1 [Example R-25, 3-(5-Bromo-pyridin-3-ylmethoxy)-4-fluoro-N-(4-piperazin-1-yl-3-trifluoromethyl-phenyl)-benzamide] | – | – | 6.6 nM | – | IC50 ([2]; Homo sapiens, HUVEC, with albumin, read-out: Huvec + Albumin IC50): 155 nM
